Laboratory results reported in patent publication US11524940B1, “Inhibitors of cysteine proteases and methods of use thereof” (priority 2020, dated 2022).
Read-outs that look alike come from different tables or passages of the source.

Assays:
[1] = target: 229E Mpro (Human coronavirus 229E (HCoV-229E), UniProt P0C6X1); assay: 229E Mpro activity; type: biochemical
Method: Compounds are assayed using standard methods to assess compound activity and IC50. […] The assay buffer contains 20 mM of Tris-HCl (pH 7.3), 100 mM of NaCl, 1 mM of EDTA, 5mM of TCEP and 0.1% BSA.

[2] = target: SARS-CoV2 Mpro (Severe acute respiratory syndrome coronavirus 2 (2019-nCoV) (SARS-CoV-2), UniProt P0DTD1); assay: COVID-19 (SARS-CoV2) Mpro enzymatic assay; type: biochemical; details: 25 nM Mpro, 25 μM substrate

Sequence of 229E Mpro (P0C6X1 2966-3267 limits assumed): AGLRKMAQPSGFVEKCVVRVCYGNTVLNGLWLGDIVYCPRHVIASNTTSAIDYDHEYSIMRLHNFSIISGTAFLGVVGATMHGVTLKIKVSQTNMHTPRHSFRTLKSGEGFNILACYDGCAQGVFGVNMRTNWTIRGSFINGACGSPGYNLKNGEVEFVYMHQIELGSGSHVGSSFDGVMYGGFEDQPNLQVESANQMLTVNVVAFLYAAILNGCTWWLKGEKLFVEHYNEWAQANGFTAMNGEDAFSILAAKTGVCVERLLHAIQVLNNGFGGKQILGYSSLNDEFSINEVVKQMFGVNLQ

Structure (SMILES) | EC50 ([1]; read-out: 229E Mpro EC50) [µM] | IC50 [2] [µM] | EC50 ([1]; 229E Mpro EC50) [µM]
COc1cccc2[nH]c(C(=O)N3Cc4ccccc4C3C(=O)N[C@H](C#N)C[C@@H]3CCNC3=O)cc12 (single isomer, unassigned) [429A (Isomer 1)] | > 30 | 10 to 30 | –
COc1cccc2[nH]c(C(=O)N3Cc4ccccc4C3C(=O)N[C@H](C#N)C[C@@H]3CCNC3=O)cc12 (single isomer, unassigned) [429A (Isomer 2)] | > 30 | > 30 | –
CC(C)(C)OC(=O)N1CCCCC12CCN(C(CC1CC1)C(=O)N[C@H](C#N)C[C@@H]1CCNC1=O)C2=O (single isomer, unassigned) [473 (Isomer 1)] | > 30 | > 30 | –
COc1cccc2[nH]c(C(=O)N[C@@H](CC3CC3)C(=O)N[C@@]3(C#N)C[C@@H]4CC[C@H]3[C@@H]3C(=O)NC(=O)[C@H]43)cc12 (single isomer, unassigned) [489 (Isomer 2)] | > 30 | > 30 | –
N#C[C@@]1(NC(=O)[C@H](CC2CC2)NC(=O)OCc2ccccc2)C[C@@H]2CC[C@H]1[C@@H]1C(=O)NC(=O)[C@H]21 (single isomer, unassigned) [495 (Isomer 2)] | > 30 | > 30 | –
COc1cccc2[nH]c(C(=O)N3CC4(CCC4)CC3C(=O)N[C@H](C#N)C[C@@H]3CCCNC3=O)cc12 (single isomer, unassigned) [719A (Isomer 1)] | 10 to 30 | 10 to 30 | –
N#C[C@H](C[C@@H]1CCCNC1=O)NC(=O)C1CC2(CCCCC2)CN1C(=O)c1cc2cccc(Cl)c2[nH]1 (single isomer, unassigned) [731 (Isomer 2)] | 10 to 30 | 2 to 10 | –
N#C[C@H](C[C@@H]1CCCNC1=O)NC(=O)C1CC2(CCCCC2)CN1C(=O)c1cc2ccc(Cl)cc2[nH]1 (single isomer, unassigned) [733 (Isomer 2)] | 2 to 10 | 2 to 10 | –
N#C[C@H](C[C@@H]1CCCNC1=O)NC(=O)C1CC2(CN1C(=O)c1cc3cccc(Cl)c3[nH]1)CC(F)(F)C2 (single isomer, unassigned) [743 (Isomer 1)] | – | > 30 | > 30
N#C[C@H](C[C@@H]1CCCNC1=O)NC(=O)C1CC2(CN1C(=O)c1cc3cccc(Cl)c3[nH]1)CC(F)(F)C2 (single isomer, unassigned) [743 (Isomer 2)] | < 2 | < 2 | –
N#C[C@H](C[C@@H]1CCCNC1=O)NC(=O)C1CC2(CCC2)CN1C(=O)c1cc2ccc(Cl)cc2[nH]1 (single isomer, unassigned) [791 (Isomer 1)] | > 30 | > 30 | –
N#C[C@H](C[C@@H]1CCCNC1=O)NC(=O)C1CC2(CCC2)CN1C(=O)c1cc2ccc(Cl)cc2[nH]1 (single isomer, unassigned) [791 (Isomer 2)] | < 2 | < 2 | –
N#C[C@H](C[C@@H]1CCCNC1=O)NC(=O)C1CC2(CCCCC2)CN1C(=O)c1cc2c(Cl)cccc2[nH]1 (single isomer, unassigned) [801 (Isomer 1)] | < 2 | < 2 | –
N#C[C@H](C[C@@H]1CCCNC1=O)NC(=O)C1CC2(CCCCC2)CN1C(=O)c1cc2c(Cl)cccc2[nH]1 (single isomer, unassigned) [801 (Isomer 2)] | 10 to 30 | 10 to 30 | –
N#C[C@H](C[C@@H]1CCCNC1=O)NC(=O)C1CC2(CCC2)CN1C(=O)c1cc2c(Cl)cccc2[nH]1 (single isomer, unassigned) [803 (Isomer 1)] | > 30 | > 30 | –
N#C[C@H](C[C@@H]1CCCNC1=O)NC(=O)C1CC2(CCC2)CN1C(=O)c1cc2c(Cl)cccc2[nH]1 (single isomer, unassigned) [803 (Isomer 2)] | > 30 | > 30 | –
N#C[C@H](C[C@@H]1CCCNC1=O)NC(=O)C1CC2(CCC2)CN1C(=O)c1cc2c(Cl)cccc2[nH]1 (single isomer, unassigned) [803 (Isomer 3)] | < 2 | < 2 | –
N#C[C@H](C[C@@H]1CCCNC1=O)NC(=O)C1CC2(CCC2)CN1C(=O)c1cc2c(Cl)cccc2[nH]1 (single isomer, unassigned) [803 (Isomer 4)] | < 2 | 2 to 10 | –
N#C[C@H](C[C@@H]1CCCNC1=O)NC(=O)C1CC2(CCC(F)(F)CC2)CN1C(=O)c1cc2cccc(Cl)c2[nH]1 (single isomer, unassigned) [805 (Isomer 1)] | > 30 | 10 to 30 | –
N#C[C@H](C[C@@H]1CCCNC1=O)NC(=O)C1CC2(CCC(F)(F)CC2)CN1C(=O)c1cc2cccc(Cl)c2[nH]1 (single isomer, unassigned) [805 (Isomer 2)] | < 2 | < 2 | –

Structure (SMILES) | EC50 ([1]; read-out: 229E Mpro EC50) [µM] | IC50 [2] [µM] | EC50 ([1]; 229E Mpro EC50) [µM]
N#C[C@H](C[C@@H]1CCNC1=O)NC(=O)C1CC2(CCC2)CN1C(=O)c1cc2ccc(Cl)c(Cl)c2[nH]1 (single isomer, unassigned) [814 (Isomer 1)] | > 30 | > 30 | –
N#C[C@H](C[C@@H]1CCNC1=O)NC(=O)C1CC2(CCC2)CN1C(=O)c1cc2ccc(Cl)c(Cl)c2[nH]1 (single isomer, unassigned) [814 (Isomer 2)] | < 2 | < 2 | –
COc1ccc(Cl)c2[nH]c(C(=O)N3CC4(CCCCC4)CC3C(=O)N[C@H](C#N)C[C@@H]3CCNC3=O)cc12 (single isomer, unassigned) [882 (Isomer 1)] | < 2 | < 2 | –
COc1ccc(Cl)c2[nH]c(C(=O)N3CC4(CCCCC4)CC3C(=O)N[C@H](C#N)C[C@@H]3CCNC3=O)cc12 (single isomer, unassigned) [882 (Isomer 2)] | 10 to 30 | 10 to 30 | –
COc1ccc2[nH]c(C(=O)N3CC4(CCC4)CC3C(=O)N[C@H](C#N)C[C@@H]3CCNC3=O)cc2c1Cl (single isomer, unassigned) [886 (Isomer 1)] | > 30 | > 30 | –
COc1ccc2[nH]c(C(=O)N3CC4(CCC4)CC3C(=O)N[C@H](C#N)C[C@@H]3CCNC3=O)cc2c1Cl (single isomer, unassigned) [886 (Isomer 2)] | < 2 | < 2 | –
COc1ccc(Cl)c2[nH]c(C(=O)N3CC4(CCCCC4)CC3C(=O)NC(C#N)C[C@@H]3CCCNC3=O)cc12 (single isomer, unassigned) [902 (Isomer 1)] | < 2 | < 2 | –
COc1ccc(Cl)c2[nH]c(C(=O)N3CC4(CCCCC4)CC3C(=O)NC(C#N)C[C@@H]3CCCNC3=O)cc12 (single isomer, unassigned) [902 (Isomer 2)] | 10 to 30 | 2 to 10 | –
COc1ccc(Cl)c2[nH]c(C(=O)N3CC4(CCCCC4)CC3C(=O)NC(C#N)C[C@@H]3CCCNC3=O)cc12 (single isomer, unassigned) [902 (Isomer 3)] | < 2 | < 2 | –
COc1ccc(Cl)c2[nH]c(C(=O)N3CC4(CCCCC4)CC3C(=O)NC(C#N)C[C@@H]3CCCNC3=O)cc12 (single isomer, unassigned) [902 (Isomer 4)] | > 30 | > 30 | –
COc1cc(Cl)cc2[nH]c(C(=O)N3CC4(CCCCC4)CC3C(=O)N[C@H](C#N)C[C@@H]3CCCNC3=O)cc12 (single isomer, unassigned) [908 (Isomer 1)] | < 2 | < 2 | –
COc1cc(Cl)cc2[nH]c(C(=O)N3CC4(CCCCC4)CC3C(=O)N[C@H](C#N)C[C@@H]3CCCNC3=O)cc12 (single isomer, unassigned) [908 (Isomer 2)] | 2 to 10 | 2 to 10 | –
CC1(C)CCC(C[C@@H](C#N)NC(=O)C2CC3(CCCCC3)CN2C(=O)c2cc3cccc(Cl)c3[nH]2)C(=O)N1 (single isomer, unassigned) [928 (Isomer 3)] | 2 to 10 | < 2 | –
CC1(C)CCC(C[C@@H](C#N)NC(=O)C2CC3(CCCCC3)CN2C(=O)c2cc3cccc(Cl)c3[nH]2)C(=O)N1 (single isomer, unassigned) [928 (Isomer 4)] | > 30 | 2 to 10 | –
CC1(C)CC(C[C@@H](C#N)NC(=O)C2CC3(CCCCC3)CN2C(=O)c2cc3cccc(Cl)c3[nH]2)C(=O)N1 (single isomer, unassigned) [930 (Isomer 1)] | > 30 | 10 to 30 | –
CC1(C)CC(C[C@@H](C#N)NC(=O)C2CC3(CCCCC3)CN2C(=O)c2cc3cccc(Cl)c3[nH]2)C(=O)N1 (single isomer, unassigned) [930 (Isomer 2)] | > 30 | 10 to 30 | –
CC1(C)CC(C[C@@H](C#N)NC(=O)C2CC3(CCCCC3)CN2C(=O)c2cc3cccc(Cl)c3[nH]2)C(=O)N1 (single isomer, unassigned) [930 (Isomer 3)] | < 2 | < 2 | –
CC1(C)CC(C[C@@H](C#N)NC(=O)C2CC3(CCCCC3)CN2C(=O)c2cc3cccc(Cl)c3[nH]2)C(=O)N1 (single isomer, unassigned) [930 (Isomer 3.1)] | < 2 | < 2 | –
CC1(C)CC(C[C@@H](C#N)NC(=O)[C@H](CC2CC2)NC(=O)c2cc3cccc(Cl)c3[nH]2)C(=O)N1 (single isomer, unassigned) [1053 (Isomer 4)] | – | < 2 | –
